Results published in paper PMC12316308, “Interactions of substrates and phosphinyl containing inhibitors with bacterial and human zinc proteases” (PLOS One, 2025).
“And” between values parts separate entries of the source, which are not always exact repeats. Equal entries are not always repeated. Where two headings read alike, the source gives them in different places.

Key:
Format in all cases: biochemical
[1] = target: T1, human MT1-MMP/MMP-14 (catalytic domain) (Homo sapiens, UniProt P50281); assay: Enzyme inhibition kinetics, fluorogenic substrate ES001; conditions: MMP-14; for remaining activity at 100 µM: 100 µM inhibitor
T1 construct: human MT1-MMP/MMP-14 (catalytic domain); purchased Calbiochem (San Diego, CA, USA)
Protocol: (§1) Determination of reaction velocities. The substrate ES001 was used for APMA activated MMP-9 (MMP-9(A)), Mag-Trypsin activated MMP-9 (MMP-9(MT)) and MMP-14, while the substrate ES005 was used for ALN, PLN and TLN. The reaction velocities/initial rates (v) were determined at 37°C, at an excitation wavelength of 320 nm and an emission wavelength of 405 nm with a slit width of 10 nm using either a Perkin Elmer LS 50 Luminescence spectrometer and the FL WinLab Software Package (Perkin Elmer) or a Clario Star micro plate reader (CLARIOstar® BMG LABTECH).
(§2) The phosphinic compounds were dissolved in 100% DMSO to a final concentration of 10 mM. In all assays, a fixed substrate concentration of 4.0 µM was used in a total volume of 100 µL 0.1 M Hepes pH 7.5, 10 mM CaCl2, 0.005% Brij-35 and 1.0% DMSO. Fixed enzyme concentrations were as follows; 0.05 nM MMP-9(A), 0.05 nM MMP-9(MT), 1.0 nM MMP-14, 1.4 nM ALN, 0.5 nM PLN and 0.21 nM TLN. Time dependent inhibitory experiments, with and without 100 μM of phosphinic compounds, were performed as follows: Compounds were either pre-incubated with proteases for 15 and 30 minutes at room temperature before initiating the enzymatic reaction by adding the substrate, or not pre-incubated, meaning the reaction was initiated by adding the protease to the mixture of substrate and compound. Control tests without the compound present were performed under the same conditions. Reactions were monitored for 30 minutes at 37°C.
(§3) Determination of IC50 and Ki values. […] A fixed substrate concentration and the same enzyme and buffer conditions as described above were used. Enzymes, with or without inhibitors, were either pre-incubated for 30 minutes at room temperature or not pre-incubated, and initial rate assays were performed as described above. Assays were performed using a Clario Star microplate reader. The IC50 values with corresponding s.d. were calculated with GraphPad Prism 5 using equation 1 or 2, depending on the concentration range of the phosphinic compounds.
(§4) Equation 3 describe the relationship between IC50 and Ki values for substrate competitive inhibitors, considering the fixed substrate concentration and the enzyme’s Km value for the substrate: […]

[2] = target: T2, APMA activated MMP-9 (MMP-9(A)) (Homo sapiens, UniProt P14780); assay: as above; conditions: rMMP-9 (APMA activated); for remaining activity at 100 µM: 100 µM inhibitor
T2 construct: made in house; host or cells: Sf9 and High Five insect cells
Protocol: (§5) The expression of recombinant full length proMMP-9 (rpMMP-9) in Sf9 and High Five insect cells and the purification were performed as previously described. The amount of proMMP-9 was estimated spectrophotometrically at 280 nm using ε280nm = […] [46] for the full length enzyme. Activation of the recombinant proMMP-9 was performed with APMA (auto-activation) and Mag-Trypsin as previously described, while the amount of active MMP-9 was determined by active site titration using galardin, also described previously.
as §1, §2, §3, §4

[3] = target: T3, Mag-Trypsin activated MMP-9 (MMP-9(MT)) (Homo sapiens, UniProt P14780); assay: as above; conditions: rMMP-9 (Mag-trypsin activated); for remaining activity at 100 µM: 100 µM inhibitor
T3 construct: made in house; host or cells: Sf9 and High Five insect cells
Protocol: as §5, §1, §2, §3, §4

aureolysin (ALN) = target: T4, aureolysin (ALN) (Staphylococcus aureus, UniProt P81177); assay: Enzyme inhibition kinetics, fluorogenic substrate ES005; conditions: for remaining activity at 100 µM: 100 µM inhibitor
T4 construct: purchased BioCentrum Ltd (Kraków, Poland)
Protocol: as §1, §2, §3, §4

pseudolysin (PLN, LasB) = target: T5, pseudolysin (PLN, LasB) (Pseudomonas aeruginosa, UniProt P14756); assay: as above; conditions: for remaining activity at 100 µM: 100 µM inhibitor
T5 construct: purchased Calbiochem (San Diego, CA, USA)
Protocol: as §1, §2, §3, §4

thermolysin (TLN) = target: T6, thermolysin (TLN) (Bacillus thermoproteolyticus, UniProt P00800); assay: as above; conditions: for vi/v0 avg (time dependent inhibition, Supplementary Figure S8): Thermolysin, inhibitor 100 µM
T6 construct: purchased Calbiochem (San Diego, CA, USA)
Protocol: as §1, §2, §3, §4

[4] = 0.25 h, 15 min pre incubation, read-out: vi/v0 (single replicate)
[5] = 0.25 h, 15 min pre incubation, read-out: vi/v0 avg
[6] = 0.5 h, 30 min pre incubation, read-out: vi/v0 avg
[7] = no preincubation, read-out: vi/v0 (single replicate)
[8] = no preincubation, read-out: vi/v0 avg
[9] = inhibitor 100 μM, preincubation 0 min
[10] = inhibitor 100 μM, preincubation 15 min
[11] = inhibitor 100 μM, preincubation 30 min
[12] = 0.5 h, 30 min pre incubation, read-out: vi/v0 (single replicate)
[13] = inhibitor 100 μM, average over 0, 15, 30 min preincubation

T2 sequence (P14780 107-707 limits assumed): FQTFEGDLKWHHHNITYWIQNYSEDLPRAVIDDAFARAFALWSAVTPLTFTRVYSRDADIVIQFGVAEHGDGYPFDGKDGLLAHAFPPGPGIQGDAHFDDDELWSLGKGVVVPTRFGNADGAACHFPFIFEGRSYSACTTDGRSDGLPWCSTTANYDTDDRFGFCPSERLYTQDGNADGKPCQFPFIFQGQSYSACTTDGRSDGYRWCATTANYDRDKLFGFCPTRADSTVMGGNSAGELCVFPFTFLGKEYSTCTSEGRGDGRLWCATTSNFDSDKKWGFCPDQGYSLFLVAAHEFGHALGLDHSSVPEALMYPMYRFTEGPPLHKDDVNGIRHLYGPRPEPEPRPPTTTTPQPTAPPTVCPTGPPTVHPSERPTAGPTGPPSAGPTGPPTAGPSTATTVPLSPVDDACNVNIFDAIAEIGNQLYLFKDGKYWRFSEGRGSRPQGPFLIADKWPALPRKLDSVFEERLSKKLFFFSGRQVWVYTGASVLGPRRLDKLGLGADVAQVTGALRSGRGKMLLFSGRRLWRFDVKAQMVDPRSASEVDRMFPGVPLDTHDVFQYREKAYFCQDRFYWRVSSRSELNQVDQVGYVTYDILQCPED
T3 sequence (P14780 107-707 limits assumed): as above
T6 sequence (P00800 233-548): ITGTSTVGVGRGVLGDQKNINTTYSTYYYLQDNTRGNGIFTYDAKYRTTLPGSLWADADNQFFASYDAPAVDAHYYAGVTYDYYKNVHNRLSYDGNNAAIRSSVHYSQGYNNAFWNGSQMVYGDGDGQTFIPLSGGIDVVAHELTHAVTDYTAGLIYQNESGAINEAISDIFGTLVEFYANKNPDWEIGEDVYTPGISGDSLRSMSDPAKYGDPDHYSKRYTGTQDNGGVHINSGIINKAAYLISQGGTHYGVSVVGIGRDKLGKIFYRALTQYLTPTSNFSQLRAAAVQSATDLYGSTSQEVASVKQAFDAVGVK
T4 sequence (P81177 209-509): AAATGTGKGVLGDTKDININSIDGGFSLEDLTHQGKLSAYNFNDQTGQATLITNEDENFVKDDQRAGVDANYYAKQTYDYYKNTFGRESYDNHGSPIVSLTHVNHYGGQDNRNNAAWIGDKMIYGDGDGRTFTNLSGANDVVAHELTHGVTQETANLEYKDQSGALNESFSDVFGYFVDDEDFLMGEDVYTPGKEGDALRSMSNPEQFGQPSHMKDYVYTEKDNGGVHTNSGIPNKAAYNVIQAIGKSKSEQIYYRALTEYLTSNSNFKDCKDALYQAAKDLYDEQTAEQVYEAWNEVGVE
T5 sequence (P14756 198-498): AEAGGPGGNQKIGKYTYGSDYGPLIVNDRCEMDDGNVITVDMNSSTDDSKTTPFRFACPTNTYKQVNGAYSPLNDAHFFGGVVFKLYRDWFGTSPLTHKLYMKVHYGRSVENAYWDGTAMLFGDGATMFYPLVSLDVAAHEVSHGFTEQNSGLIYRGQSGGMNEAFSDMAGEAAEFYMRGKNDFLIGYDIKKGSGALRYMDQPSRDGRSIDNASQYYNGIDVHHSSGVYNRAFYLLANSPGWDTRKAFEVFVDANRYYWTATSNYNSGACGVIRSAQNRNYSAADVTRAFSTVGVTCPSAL

Structure (SMILES): CCOC(=O)C(CO)CP(=O)(O)C(Cc1ccccc1)NC(=O)OCc1ccccc1 (stereo not drawn) [H5]
- remaining activity at 100 µM [1, 4]: 87.2%
- remaining activity at 100 µM [1, 5]: 88.7%
- remaining activity at 100 µM [1, 6]: 96.8%
- remaining activity at 100 µM [1, 7]: 96.3%
- remaining activity at 100 µM [1, 8]: 98.5%
- vi/v0 Av (bar diagram figure 7) ([1]; inhibitor 100 μM, average over preincubation times): 0.9417
- vi/v0 (relative enzyme activity with inhibitor), single determinations [1, 9]: 0.9629 and 1.0076
- vi/v0 (relative enzyme activity with inhibitor), single determinations [1, 10]: 0.8725 and 0.8868 and 0.9012
- vi/v0 (relative enzyme activity with inhibitor), single determinations [1, 11]: 1.138 and 0.953 and 0.8121
- remaining activity at 100 µM [2, 5]: 102%
- remaining activity at 100 µM [2, 12]: 77.7%
- remaining activity at 100 µM [2, 6]: 83.7%
- remaining activity at 100 µM [2, 8]: 100%
- vi/v0 Av (bar diagram figure 7) [2, 13]: 0.9644
- vi/v0 (relative enzyme activity with inhibitor), single determinations [2, 9]: 1.202 and 0.9509 and 1.0525 and 0.8
- vi/v0 (relative enzyme activity with inhibitor), single determinations [2, 10]: 1.106 and 1.228 and 0.879 and 0.8791
- vi/v0 (relative enzyme activity with inhibitor), single determinations [2, 11]: 0.7771 and 0.9097 and 0.824
- remaining activity at 100 µM [3, 4]: 87.3%
- remaining activity at 100 µM [3, 5]: 84.8%
- remaining activity at 100 µM [3, 12]: 86.9%
- remaining activity at 100 µM [3, 6]: 88.1%
- remaining activity at 100 µM [3, 7]: 88.4%
- remaining activity at 100 µM [3, 8]: 88.5%
- vi/v0 Av (bar diagram figure 7) [3, 13]: 0.8694
- vi/v0 (relative enzyme activity with inhibitor), single determinations [3, 9]: 0.8838 and 0.8693 and 0.8452 and 0.9405
- vi/v0 (relative enzyme activity with inhibitor), single determinations [3, 10]: 0.8726 and 0.9039 and 0.8256 and 0.7918
- vi/v0 (relative enzyme activity with inhibitor), single determinations [3, 11]: 0.8689 and 0.8925
- remaining activity at 100 µM (aureolysin (ALN); 0.25 h, read-out: vi/v0 (single replicate), Aureolysin, 15 min pre incubation): 84.1%
- remaining activity at 100 µM (aureolysin (ALN); 0.25 h, read-out: vi/v0 avg, Aureolysin, 15 min pre incubation): 89.9%
- remaining activity at 100 µM (aureolysin (ALN); 0.5 h, read-out: vi/v0 (single replicate), Aureolysin, 30 min pre incubation): 89.6%
- remaining activity at 100 µM (aureolysin (ALN); 0.5 h, read-out: vi/v0 avg, Aureolysin, 30 min pre incubation): 87.3%
- vi/v0 Av (bar diagram figure 7) (aureolysin (ALN); Aureolysin (ALN), inhibitor 100 μM, average over 0, 15, 30 min preincubation): 0.8959
- vi/v0 (relative enzyme activity with inhibitor), single determinations (aureolysin (ALN); Aureolysin (ALN), inhibitor 100 μM, preincubation 0 min): 0.8465 and 0.9473 and 0.9691 and 0.8995
- vi/v0 (relative enzyme activity with inhibitor), single determinations (aureolysin (ALN); Aureolysin (ALN), inhibitor 100 μM, preincubation 15 min): 0.8412 and 0.9365 and 0.9386 and 0.8803
- vi/v0 (relative enzyme activity with inhibitor), single determinations (aureolysin (ALN); Aureolysin (ALN), inhibitor 100 μM, preincubation 30 min): 0.8961 and 0.824 and 0.8612 and 0.9107
- remaining activity at 100 µM (aureolysin (ALN); read-out: vi/v0 (single replicate), Aureolysin, no preincubation): 84.6%
- remaining activity at 100 µM (aureolysin (ALN); read-out: vi/v0 avg, Aureolysin, no preincubation): 91.6%
- remaining activity at 100 µM (pseudolysin (PLN, LasB); 0.25 h, read-out: vi/v0 (single replicate), Pseudolysin, 15 min pre incubation): 83.9%
- remaining activity at 100 µM (pseudolysin (PLN, LasB); 0.25 h, read-out: vi/v0 avg, Pseudolysin, 15 min pre incubation): 86.2%
- remaining activity at 100 µM (pseudolysin (PLN, LasB); 0.5 h, read-out: vi/v0 (single replicate), Pseudolysin, 30 min pre incubation): 86.3%
- remaining activity at 100 µM (pseudolysin (PLN, LasB); 0.5 h, read-out: vi/v0 avg, Pseudolysin, 30 min pre incubation): 75.4%
- vi/v0 Av (bar diagram figure 7) (pseudolysin (PLN, LasB); Pseudolysin (PLN), inhibitor 100 μM, average over 0, 15, 30 min preincubation): 0.86
- vi/v0 (relative enzyme activity with inhibitor), single determinations (pseudolysin (PLN, LasB); Pseudolysin (PLN), inhibitor 100 μM, preincubation 0 min): 1.071 and 0.9333 and 0.8899
- vi/v0 (relative enzyme activity with inhibitor), single determinations (pseudolysin (PLN, LasB); Pseudolysin (PLN), inhibitor 100 μM, preincubation 15 min): 0.8394 and 0.8848
- vi/v0 (relative enzyme activity with inhibitor), single determinations (pseudolysin (PLN, LasB); Pseudolysin (PLN), inhibitor 100 μM, preincubation 30 min): 0.863 and 0.6659 and 0.7323
- remaining activity at 100 µM (pseudolysin (PLN, LasB); read-out: vi/v0 (single replicate), Pseudolysin, no preincubation): 107%
- remaining activity at 100 µM (pseudolysin (PLN, LasB); read-out: vi/v0 avg, Pseudolysin, no preincubation): 96.5%
- vi/v0 Av (bar diagram figure 7) (thermolysin (TLN); Thermolysin (TLN), inhibitor 100 μM, average over 0, 15, 30 min preincubation): 1.046
- vi/v0 (relative enzyme activity with inhibitor), single determinations (thermolysin (TLN); Thermolysin (TLN), inhibitor 100 μM, preincubation 0 min): 1.137 and 1.068 and 1.02 and 1.001
- vi/v0 (relative enzyme activity with inhibitor), single determinations (thermolysin (TLN); Thermolysin (TLN), inhibitor 100 μM, preincubation 15 min): 1.051 and 0.8192 and 1.086 and 1.159
- vi/v0 (relative enzyme activity with inhibitor), single determinations (thermolysin (TLN); Thermolysin (TLN), inhibitor 100 μM, preincubation 30 min): 1.144 and 1.0013 and 1.003 and 1.066
- vi/v0 avg (time dependent inhibition, Supplementary Figure S8) (thermolysin (TLN); 15 min pre incubation): 1.029
- vi/v0 avg (time dependent inhibition, Supplementary Figure S8) (thermolysin (TLN); 30 min pre incubation): 1.054
- vi/v0 avg (time dependent inhibition, Supplementary Figure S8) (thermolysin (TLN); No preincubation): 1.056
